pEC50: −log10 of the molar value.
Tested on: hypoxia-inducible endogenous VEGF expression in HeLa cells
Assay: Hypoxia-inducible endogenous VEGF expression, VEGF ELISA of conditioned media (dose-response EC50)
Type: cell-based
Settings: Homo sapiens
In short: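 HeLa cells were cultured 24-48 h under hypoxia (1% O2, 5% CO2, balance N2) with or without compound. Conditioned-media VEGF protein was measured by ELISA against a standard curve. EC50 and CC50 come from percentage-inhibition curves over, e.g., seven concentrations, with maximal inhibition set at 100%.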

[1] = HeLa cells under hypoxic conditions
[2] = HeLa cells, hypoxic conditions (1% O2)
[3] = HeLa cells, hypoxic conditions (1% O2, 5% CO2)

pEC50 [1]	pEC50 [2]	SMILES	also measured
7.40 to 8.10	–	CCOC(=O)N1CCc2c([nH]c3ccc(Cl)cc23)C1c1ccc([N+](=O)[O-])cc1 (stereo not drawn) [#74]	–
< 6.00	–	COc1ccc(C2c3[nH]c4ccc(Cl)cc4c3CCN2C(=O)N2CCOCC2)cc1 (stereo not drawn) [Compound 334]	–
–	6.70 to 7.40	CCOC(=O)N1CCc2c([nH]c3ccc(Br)cc23)C1c1ccc(C(=O)N(C)C)cc1 (stereo not drawn) [Compound 483]	–
–	> 8.10	COCCOCCOc1ccc(C2c3[nH]c4ccc(Cl)cc4c3CCN2C(=O)Oc2ccc(Br)cc2)cc1 (stereo not drawn) [Compound 680]	–
< 6.00	–	COc1ccc(OC(=O)N2CCc3c([nH]c4ccc(Br)cc34)[C@@H]2c2ccc(Cl)cc2)cc1 [#332]	–
6.00 to 6.70	–	COc1ccc(C2c3[nH]c4ccc(Cl)cc4c3CCN2C(=O)Nc2ccc(F)cc2)cc1 (stereo not drawn) [Compound 179]	–
–	> 8.10	COCCOc1ccc(C2c3[nH]c4ccc(Cl)cc4c3CCN2C(=O)OC(C)C)cc1 (stereo not drawn) [Compound 411]	–
7.40 to 8.10	–	COC(=O)N1CCc2c([nH]c3ccc(Cl)cc23)C1c1ccc(Br)cc1 (stereo not drawn) [Compound 46]	–
6.70 to 7.40	–	COc1ccc(C2c3[nH]c4ccc(Cl)cc4c3CCN2C(=O)Nc2ccccc2)cc1 (stereo not drawn) [Compound 167]	–
7.40 to 8.10	–	COC(=O)N1CCc2c([nH]c3ccc(Cl)cc23)C1c1ccc([N+](=O)[O-])cc1 (stereo not drawn) [Compound 111]	–
6.70 to 7.40	–	COc1ccc(C2c3[nH]c4ccc(Br)cc4c3CCN2C(C)=O)cc1 (stereo not drawn) [Compound 130]	–
6.00 to 6.70	–	COc1ccc(C2c3[nH]c4ccc(Cl)cc4c3CCN2C(=O)NCc2ccccc2)cc1 (stereo not drawn) [Compound 188]	–
7.40 to 8.10	–	Cc1ccc(C2c3[nH]c4ccc(Cl)cc4c3CCN2C(=O)OCCCl)cc1 (stereo not drawn) [Compound 48]	–
–	6.70 to 7.40	COc1ccc(C2c3[nH]c4ccc(Cl)cc4c3CCN2C(=O)Oc2ccccc2Cl)cc1 (stereo not drawn) [Compound 587]	–
6.70 to 7.40	–	CC(=O)N1CCc2c([nH]c3ccc(Br)cc23)C1c1ccc(C)cc1 (stereo not drawn) [Compound 131]	–
–	> 8.10	CCOC(=O)N1CCc2c([nH]c3ccc(Br)cc23)C1c1ccc(CNCCOC)cc1 (stereo not drawn) [Compound 420]	–
< 6.00	–	CCOC(=O)N1CCc2c([nH]c3ccc(F)cc23)C1c1cccc(Cl)c1 (stereo not drawn) [Compound 284]	–
> 8.10	–	CC(C)c1ccc(C2c3[nH]c4ccc(Br)cc4c3CCN2C(=O)Oc2ccc(Cl)cc2)cc1 (stereo not drawn) [Compound 354]	–
6.70 to 7.40	–	CCC(=O)N1CCc2c([nH]c3ccc(Cl)cc23)C1c1ccc(OC)cc1 (stereo not drawn) [Compound 143]	–
6.70 to 7.40	–	CC(=O)N1CCc2c([nH]c3ccc(Br)cc23)C1c1ccccc1 (stereo not drawn) [Compound 152]	–

Second part, the molecule before the results:

SMILES	pEC50 [1]	pEC50 [2]	also measured
O=C(Oc1ccccc1Cl)N1CCc2c([nH]c3ccc(Cl)cc23)C1c1ccc(OCC(O)CO)cc1 (stereo not drawn) [Compound 628]	–	6.70 to 7.40	–
O=C(Oc1ccc(F)cc1)N1CCc2c([nH]c3ccc(Cl)cc23)C1c1ccc(OCCCn2cncn2)cc1 (stereo not drawn) [Compound 892]	–	–	pEC50 [3]: > 8.10
COc1ccc(OC(=O)N2CCc3c([nH]c4ccc(Br)cc34)C2c2cnc(N(C)C)nc2)cc1 (stereo not drawn) [Compound 431]	–	> 8.10	–
Clc1ccc2[nH]c3c(c2c1)CCN(Cc1ccccc1)C3c1ccncc1 (stereo not drawn) [Compound 272]	< 6.00	–	–
COCCOc1ccc(C2c3[nH]c4ccc(Cl)cc4c3CCN2C(=O)Oc2ccc(Cl)cc2)cc1 (stereo not drawn) [Compound 418]	–	> 8.10	–
COc1cccc(C2NC(CO)Cc3c2[nH]c2ccccc32)c1 (stereo not drawn) [Compound 318]	< 6.00	–	–
CN1CCN(CCCCOc2ccc(C3c4[nH]c5ccc(Cl)cc5c4CCN3C(=O)Oc3ccc(Cl)cc3)cc2)CC1 (stereo not drawn) [Compound 704]	–	6.70 to 7.40	–
CNCC(O)COc1ccc(C2c3[nH]c4ccc(Cl)cc4c3CCN2C(=O)Oc2ccc(Cl)cc2)cc1 (stereo not drawn) [Compound 850]	–	–	pEC50 [3]: 6.70 to 7.40
CNc1ncc(C2c3[nH]c4ccc(Br)cc4c3CCN2c2ncccn2)cn1 (stereo not drawn) [Compound 443]	–	7.40 to 8.10	–
CN1CCN(CC(O)COc2ccc(C3c4[nH]c5ccc(Cl)cc5c4CCN3C(=O)Oc3ccc(Cl)cc3)cc2)CC1 (stereo not drawn) [Compound 970]	–	–	pEC50 [3]: 7.40 to 8.10
CS(=O)(=O)N1CCc2c([nH]c3ccc(Cl)cc23)C1c1ccc(OCc2ccccc2)cc1 (stereo not drawn) [Compound 225]	6.00 to 6.70	–	–
CC(C)c1ccc(C2c3[nH]c4ccc(Cl)cc4c3CCN2C(=S)NC2CCCCC2)cc1 (stereo not drawn) [Compound 335]	6.70 to 7.40	–	–
CCOC(=O)N1CCc2c([nH]c3ccc(Cl)cc23)C1c1cc(F)cc(F)c1 (stereo not drawn) [Compound 77]	7.40 to 8.10	–	–
COc1ccc(C2c3[nH]c4ccc(Cl)cc4c3CCN2C(=O)NCCCl)cc1 (stereo not drawn) [Compound 217]	6.00 to 6.70	–	–
Clc1ccc2[nH]c3c(c2c1)CCNC3c1ccccc1Cl (stereo not drawn) [Compound 197]	6.00 to 6.70	–	–
CN(C)c1ncc(C2c3[nH]c4ccc(Cl)cc4c3CCN2C(=O)Oc2ccc(Cl)cc2)cn1 (stereo not drawn) [Compound 475]	–	6.70 to 7.40	–
O=C(Oc1ccc(Cl)cc1)N1CCc2c([nH]c3ccc(Cl)cc23)C1c1ccc(OCCCCCCN2CCCCC2)cc1 (stereo not drawn) [Compound 787]	–	> 8.10	–
O=C(Oc1ccc(F)cc1)N1CCc2c([nH]c3ccc(Cl)cc23)C1c1ccc(OCCCCn2cncn2)cc1 (stereo not drawn) [Compound 743]	–	> 8.10	–
CCCCCCC1c2[nH]c3ccc(Cl)cc3c2CCN1C(=O)OCC (stereo not drawn) [Compound 515]	–	6.00 to 6.70	–

SMILES	pEC50 [1]	pEC50 [2]	also measured
CCOC(=O)N1CCc2c([nH]c3ccc(Cl)cc23)C1c1ccc(C(=O)NCCC2CCCN2C)cc1 (stereo not drawn) [Compound 521]	–	6.00 to 6.70	–
CCOC(=O)N1CCc2c([nH]c3ccc(Cl)cc23)C1c1ccc(OCCCn2cncn2)cc1 (stereo not drawn) [Compound 390]	> 8.10	–	–
CCOC(=O)N1CCc2c([nH]c3ccc(Cl)cc23)C1c1cc(F)ccc1F (stereo not drawn) [Compound 82]	7.40 to 8.10	–	–
CCOC(=O)N1CCc2c([nH]c3ccc(Cl)cc23)C1C(C)Cc1ccc(C(C)C)cc1 (stereo not drawn) [Compound 523]	–	6.00 to 6.70	–
CC(=O)NCC(O)COc1ccc(C2c3[nH]c4ccc(Cl)cc4c3CCN2C(=O)Oc2ccc(Cl)cc2)cc1 (stereo not drawn) [Compound 847]	–	–	pEC50 [3]: 7.40 to 8.10
CCOC(=O)N1CCc2c([nH]c3ccc(Cl)cc23)C1c1ccc(C(=O)N2CCN(C3CCCCC3)CC2)cc1 (stereo not drawn) [Compound 481]	–	6.70 to 7.40	–
CCOC(=O)N1CCc2c([nH]c3ccc(Br)cc23)C1c1cccc(F)c1F (stereo not drawn) [Compound 29]	> 8.10	–	–
Oc1ccccc1C1NCCc2c1[nH]c1ccc(Br)cc21 (stereo not drawn) [Compound 378]	< 6.00	–	–
C=CCOc1ccc(C2c3[nH]c4ccc(Cl)cc4c3CCN2C(=O)Oc2ccccc2)cc1 (stereo not drawn) [Compound 413]	–	> 8.10	–
COCCOc1ccc(C2c3[nH]c4ccc(Cl)cc4c3CCN2C(=O)Oc2ccc(OC)cc2)cc1 (stereo not drawn) [Compound 465]	–	7.40 to 8.10	–
O=C(Oc1ccc(F)cc1)N1CCc2c([nH]c3ccc(Cl)cc23)C1c1ccc(OCCCCN2CCCC2)cc1 (stereo not drawn) [Compound 736]	–	> 8.10	–
CC(C)NC(=S)N1CCc2c([nH]c3ccc(Br)cc23)C1c1cccc(Cl)c1 (stereo not drawn) [Compound 202]	6.00 to 6.70	–	–
CCOC(=O)N1CCc2c([nH]c3ccc(Br)cc23)C1c1cc(F)ccc1F (stereo not drawn) [Compound 115]	7.40 to 8.10	–	–
O=C(Oc1ccc(F)cc1)N1CCc2c([nH]c3ccc(Cl)cc23)C1c1ccc(OCCCCl)cc1 (stereo not drawn) [Compound 712]	–	> 8.10	–
CSCCC1NCCc2c1[nH]c1ccc(Cl)cc21 (stereo not drawn) [Compound 497]	–	6.70 to 7.40	–
CN1CCN(CCCOc2ccc(C3c4[nH]c5ccc(Cl)cc5c4CCN3C(=O)Oc3ccc(F)cc3)cc2)CC1 (stereo not drawn) [Compound 993]	–	–	pEC50 [3]: > 8.10
O=C(Oc1ccc(Cl)cc1)N1CCc2c([nH]c3ccc(Cl)cc23)C1c1ccc(OCCCN2CCCCC2)cc1 (stereo not drawn) [Compound 433]	–	> 8.10	–
CC(C)c1ccc(C2c3[nH]c4ccc(Cl)cc4c3CCN2C(=O)Oc2ccc(Cl)cc2)cc1 (stereo not drawn) [Compound 348]	> 8.10	–	–

Reference: patent US8076352B2, “Administration of carboline derivatives useful in the treatment of cancer and other diseases” (PTC Therapeutics, Inc., priority 2004, dated 2011)
